Measured values from US7183369B1, “Injectible bodily prosthetics employing methacrylic copolymer gels” (Iowa State University Research Foundation, Inc., priority 2003, dated 2007).

Test system: NIH/3T3 mouse fibroblasts
Assay: Elution cytotoxicity test
Format: cell-based
Experimental: Elution tests were performed on one sample of the pentablock material to assess the cytotoxic properties of the pentablock copolymers. Approximately 30 mg of the polymers to be tested were dissolved in 100 ml of low-glucose Dulbecco's modified eagle medium (DMEM, Sigma) with 10% fetal bovine serum (FBS, Sigma), 10 μg/ml insulin (Sigma), 10 units/ml penicillin/streptomycin (Sigma), and 100 μg/ml L-ascorbic acid (Sigma). This solution was diluted to achieve the desired polymer concentration for all tests.
NIH/3T3 mouse fibroblasts were grown in polystyrene flasks until reaching confluence at 150 cells/mm. The growth media was removed from the flasks and replaced with one of the following: DMEM (negative control), DMEM with phenol (positive control), DMEM with the pentablock material. The concentrations of the pentablock material and phenol were 3 mg/L, 0.3 mg/L and 0.03 mg/L.
After 24 hours of incubation in a humidified incubator with 5% CO2 at 37° C. the samples were removed and the media was replaced with Karnovsky's fixative (2.5% glutaraldehyde, 2.0% paraformaldehyde, 0.1M sodium cacodylate) for 12 hours. The samples were then stained with a 20% crystal violet dye (CVD) solution in ethanol for 6 hours followed by dehydration with ethanol. […]

## PDEAEM-b-PEO-b-PPO-b-PEO-b-PDEAEM [pentablock copolymer]
  cell adhesion to polystyrene substrate and confluence after test period: good adhesion to the polystyrene cell culture substrate and the cells remained confluent
